Measured values from PubChem BioAssay (NCI).
“And” between values parts separate entries of the source, which are not always exact repeats. Equal entries are not always repeated.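 These data come from cells grown in 96-well plates and exposed to compound for 48 hours at five concentrations. Abbreviation: GI50, concentration required for 50% inhibition of growth. The concentration for full growth arrest is given as TGI.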

How the values were obtained:
Assay in all cases: growth of human tumour cells (NCI), 48 h
HCT-116 colon = test system: HCT-116 colon
UACC-257 melanoma = test system: UACC-257 melanoma
786-0 renal = test system: 786-0 renal
HOP-62 NSCLC = test system: HOP-62 NSCLC
KM20L2 colon = test system: KM20L2 colon
EKVX NSCLC = test system: EKVX NSCLC
SF-268 CNS = test system: SF-268 CNS
M19-MEL melanoma = test system: M19-MEL melanoma
SK-MEL-5 melanoma = test system: SK-MEL-5 melanoma
SW-620 colon = test system: SW-620 colon
SNB-78 CNS = test system: SNB-78 CNS

SMILES	TGI (HCT-116 colon)	TGI (UACC-257 melanoma)	TGI (786-0 renal) [µM]	TGI (HOP-62 NSCLC)	TGI (KM20L2 colon) [µM]	TGI (EKVX NSCLC)	TGI (SF-268 CNS)	TGI (M19-MEL melanoma) [µM]	TGI (SK-MEL-5 melanoma)	TGI (SW-620 colon)	TGI (SNB-78 CNS) [µM]	GI50 (HCT-116 colon) [µM]	GI50 (UACC-257 melanoma) [µM]	GI50 (HOP-62 NSCLC) [µM]	GI50 (EKVX NSCLC) [µM]	GI50 (SF-268 CNS)	GI50 (SK-MEL-5 melanoma) [µM]	GI50 (SW-620 colon) [µM]	GI50 (KM20L2 colon) [µM]	GI50 (SNB-78 CNS) [µM]
O=C1c2ccccc2C2C1N2C(=O)C(F)(F)F (stereo unspecified)	> 100 µM	> 100 µM	> 100	> 100 µM	> 100	> 100 µM	> 100 µM	> 100	> 100 µM	> 100 µM										
Cc1cc(=O)[nH]c(NN2C(Cl)C(=O)C2c2ccccc2O)n1 (stereo unspecified)	> 42.7 µM	> 100 µM	> 100	> 100 µM	> 100	> 75.1 µM	> 100 µM	> 100	17.2 µM	> 100 µM	> 100									
Cc1c2cnccc2c(C)c2c1c1ccccc1n2CCCN	0.609 µM and 0.628 µM	2.32 µM and 1.92 µM	0.564	1.52 µM and 0.597 µM	0.989	1.37 µM and 0.506 µM	0.879 µM and 0.583 µM	0.915	1.44 µM and 2.17 µM	0.878 µM and 0.211 µM	2.23	0.121	0.633	0.0687	0.153	0.2 µM and 0.141 µM	1.01	0.035		
CC1C=C(CCCCCCCCCCCC[C@@H](O)[C@@H]2CC[C@@H]([C@@H]3CC[C@@H](C(O)CCCCCCCCCCCCC4=C[C@H](C)OC4=O)O3)O2)C(=O)O1 (stereo partly specified)	> 100 µM	> 100 µM	> 100	> 100 µM	> 100	> 100 µM	> 100 µM	> 100	27.4 µM	> 100 µM										
[N-]=[N+]=Nc1cc(=O)oc2ccccc12	> 100 µM	> 100 µM	> 100	> 100 µM			> 100 µM	> 100	> 100 µM	> 100 µM										
N#CN=C(N(Cc1ccccc1)Cc1ccccc1)N(Cc1ccccc1)Cc1ccccc1	> 100 µM	> 100 µM		> 100 µM	> 100	> 100 µM	> 100 µM	> 100		> 100 µM	> 100									
CC(N)Cc1ccc(C(=O)Cl)cc1 (stereo unspecified)	> 100 µM	> 100 µM	> 100	> 100 µM	> 100	> 100 µM	> 100 µM	> 100	> 100 µM	> 100 µM										
O=C([O-])CC(=O)[O-].O=C([O-])CC(=O)[O-].[K+].[Pd+2]	> 100 µM				> 100	> 100 µM			> 100 µM	> 100 µM	> 100	> 100			> 100		> 100	> 100	> 100	> 100
CCN(CC)CCC(=O)Nc1ccc2c(c1)C(=O)c1ccc(NC(=O)CCN(CC)CC)cc1C2=O	10.1 µM	29.7 µM	8.42	17.6 µM	28	15.1 µM	18.9 µM	> 100	19.8 µM	6.93 µM	48.3									
COc1nc(N)c(C(=O)CCl)c(=O)n1C	31.3 µM	31.3 µM			50.1	31.7 µM	55.2 µM		28.5 µM	28.5 µM	40.2									
C[n+]1c2ccccc2c(/C=N\NS(=O)(=O)c2ccc(O)c(C(=O)O)c2)c2ccccc21	> 100 µM		> 100	> 100 µM	> 100	> 100 µM	> 100 µM	> 100	> 100 µM	> 100 µM	> 100									
Cc1cccc2c(=O)cc(-c3ccccc3)[nH]c12	> 100 µM	> 100 µM	> 100	42.6 µM	19.4	> 100 µM	> 100 µM	> 100	78.4 µM	> 100 µM										
CC(C)CCCCCCCCCCCCC(=O)NCC(=O)NC1C(C)OC(Nc2ncnc3c2ncn3C)C(O)C1O (stereo unspecified)		> 100 µM		> 34.2 µM	> 100	> 100 µM	> 100 µM	> 100	> 100 µM	> 100 µM	> 100									
